Measured values taken from ChEMBL document CHEMBL1201862, “PubChem BioAssay data set” (2004).
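The compound was tested at five concentrations on cells cultured in 96-well plates, with a 48-hour exposure period. Here, GI50 denotes the concentration required for 50% inhibition of growth.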 The source made the active and inactive calls. No stated cut-off is given here; in the data, active = GI50 up to about 1.1 µM and inactive = higher.

Columns and labels:
Assay in all cases: NCI-60 cell line screen, 48 h
K562 = test system: K562
786-0 = test system: 786-0
EKVX = test system: EKVX
HOP-62 = test system: HOP-62
SR = test system: SR
OVCAR-5 = test system: OVCAR-5
OVCAR-4 = test system: OVCAR-4
SF-295 = test system: SF-295
OVCAR-3 = test system: OVCAR-3
SK-MEL-2 = test system: SK-MEL-2
SNB-19 = test system: SNB-19
RXF 393 = test system: RXF 393
MDA-N = test system: MDA-N
MDA-MB-231 = test system: MDA-MB-231
SNB-75 = test system: SNB-75
HT-29 = test system: HT-29
SK-MEL-5 = test system: SK-MEL-5
UACC-257 = test system: UACC-257
NCI-H226 = test system: NCI-H226
SF-539 = test system: SF-539

Structure (SMILES)	GI50 (K562)	GI50 (786-0)	GI50 (EKVX)	GI50 (HOP-62)	GI50 (SR)	GI50 (OVCAR-5)	GI50 (OVCAR-4)	GI50 (SF-295)	GI50 (OVCAR-3)	GI50 (SK-MEL-2)	GI50 (SNB-19)	GI50 (RXF 393)	GI50 (MDA-N)	GI50 (MDA-MB-231)	GI50 (SNB-75)	GI50 (HT-29)	GI50 (SK-MEL-5)	GI50 (UACC-257)	GI50 (NCI-H226)	GI50 (SF-539)
O=C(O)c1ccc(C(=O)Nc2cccc3ccccc23)c(C(=O)O)c1	> 100 µM (inactive)	> 100 µM (inactive)	> 100 µM (inactive)	> 100 µM (inactive)	> 100 µM (inactive)	> 100 µM (inactive)	> 100 µM (inactive)	> 100 µM (inactive)	> 100 µM (inactive)	> 100 µM (inactive)	> 100 µM (inactive)	> 100 µM (inactive)	> 100 µM (inactive)	> 100 µM (inactive)	> 100 µM (inactive)	> 100 µM (inactive)	> 100 µM (inactive)	> 100 µM (inactive)	> 100 µM (inactive)	> 100 µM (inactive)
CC(=O)N1N=C(N)CC1=O	> 100 µM (inactive)	> 100 µM (inactive)	> 100 µM (inactive)	> 100 µM (inactive)	> 100 µM (inactive)	> 100 µM (inactive)	> 100 µM (inactive)	> 100 µM (inactive)	> 100 µM (inactive)	> 100 µM (inactive)	> 100 µM (inactive)	> 100 µM (inactive)	> 100 µM (inactive)	> 100 µM (inactive)	> 100 µM (inactive)	> 100 µM (inactive)	> 100 µM (inactive)	> 100 µM (inactive)	> 100 µM (inactive)	> 100 µM (inactive)
CCOC(=O)[C@H](O)[C@@H](O)C(=O)NCc1ccc(C(=O)c2ccccc2)cc1	> 100 µM (inactive)	> 100 µM (inactive)	> 100 µM (inactive)	> 100 µM (inactive)	> 100 µM (inactive)	> 100 µM (inactive)	> 100 µM (inactive)	> 100 µM (inactive)	> 100 µM (inactive)	> 100 µM (inactive)	> 100 µM (inactive)	> 100 µM (inactive)	> 100 µM (inactive)	> 100 µM (inactive)	> 100 µM (inactive)	> 100 µM (inactive)	> 100 µM (inactive)	> 100 µM (inactive)	> 100 µM (inactive)	> 100 µM (inactive)
O=[N+]([O-])C(C(Cl)=C(Cl)Cl)=C(n1nnc2ccccc21)n1nnc2ccccc21	11.5 µM (inactive)	13.2 µM (inactive)	> 59.3 µM (inactive)	35.7 µM (inactive)	8.45 µM (inactive)	47.1 µM (inactive)	36.9 µM (inactive)	> 56 µM (inactive)	24.9 µM (inactive)	42 µM (inactive)	> 86.7 µM (inactive)	20.2 µM (inactive)	23.9 µM (inactive)	20.4 µM (inactive)	> 44.3 µM (inactive)	26 µM (inactive)	34.2 µM (inactive)	48.9 µM (inactive)	> 58.7 µM (inactive)	28.2 µM (inactive)
Clc1nc(Cl)c(CBr)c(Cl)n1	2 µM (inactive)	2.24 µM (inactive)	22.1 µM (inactive)	5.04 µM (inactive)	1.74 µM (inactive)	3.22 µM (inactive)	6.34 µM (inactive)	6.11 µM (inactive)	5.45 µM (inactive)	8.65 µM (inactive)	16 µM (inactive)	6.85 µM (inactive)	3.25 µM (inactive)	1.9 µM (inactive)	8.83 µM (inactive)	4.29 µM (inactive)	4.01 µM (inactive)	15 µM (inactive)	8.45 µM (inactive)	2.99 µM (inactive)
CC(=O)OCC1OC(O[C@H]2C=C[C@@H](C(=O)OCc3ccccc3)n3c(=O)n(-c4ccccc4)c(=O)n32)C(OC(C)=O)C(OC(C)=O)C1OC(C)=O (stereo not given in full)	1.63 µM (inactive)	1.6 µM (inactive)	1.95 µM (inactive)	5.01 µM (inactive)	1.3 µM (inactive)	2.23 µM (inactive)	2.54 µM (inactive)	10.6 µM (inactive)	1.79 µM (inactive)	4.66 µM (inactive)	15.7 µM (inactive)	2.24 µM (inactive)	2.77 µM (inactive)	1.89 µM (inactive)	10.9 µM (inactive)	1.56 µM (inactive)	1.14 µM (inactive)	1.92 µM (inactive)	4.55 µM (inactive)	1.82 µM (inactive)
Cc1ccc2c(c1)C(=O)/C(=C1/CCc3ccc(C)cc31)C2	76 µM (inactive)	46 µM (inactive)	> 100 µM (inactive)	> 100 µM (inactive)	35.6 µM (inactive)	> 100 µM (inactive)	30.4 µM (inactive)	> 100 µM (inactive)	> 100 µM (inactive)	> 100 µM (inactive)	87.5 µM (inactive)	> 100 µM (inactive)	> 100 µM (inactive)	27.8 µM (inactive)	13.9 µM (inactive)	> 100 µM (inactive)	> 100 µM (inactive)	> 100 µM (inactive)	> 100 µM (inactive)	54.7 µM (inactive)
c1ccc(C(=NNc2cnc3ccccc3n2)c2ccccn2)cc1	1.2 µM (inactive)	1.38 µM (inactive)	0.269 µM (active)	7.26 µM (inactive)	1.01 µM (active)	2.59 µM (inactive)	3.89 µM (inactive)	2.93 µM (inactive)	0.608 µM (active)	9.77 µM (inactive)	6.43 µM (inactive)	7.59 µM (inactive)	9.64 µM (inactive)	1 µM (active)	5.85 µM (inactive)	0.048 µM (active)	1.42 µM (inactive)	0.418 µM (active)	4.9 µM (inactive)	1.58 µM (inactive)
O=C(O)C1[C@@H](C(=O)O)C1(Br)CBr (stereo not given in full)	> 100 µM (inactive)	> 100 µM (inactive)	> 100 µM (inactive)	> 100 µM (inactive)	> 100 µM (inactive)	> 100 µM (inactive)	> 100 µM (inactive)	> 100 µM (inactive)	> 100 µM (inactive)	> 100 µM (inactive)	> 100 µM (inactive)	> 100 µM (inactive)	> 100 µM (inactive)	> 100 µM (inactive)	> 100 µM (inactive)	> 100 µM (inactive)	> 100 µM (inactive)	> 100 µM (inactive)	> 100 µM (inactive)	> 100 µM (inactive)
NC(Cc1ccc(B(O)O)cc1)C(=O)NC(CO)CO (stereo not given)	> 100 µM (inactive)	> 100 µM (inactive)	> 100 µM (inactive)	> 100 µM (inactive)	> 100 µM (inactive)	> 100 µM (inactive)	> 100 µM (inactive)	> 100 µM (inactive)	> 100 µM (inactive)	> 100 µM (inactive)	> 100 µM (inactive)	67.6 µM (inactive)	> 100 µM (inactive)	> 100 µM (inactive)	> 100 µM (inactive)	> 100 µM (inactive)	> 100 µM (inactive)	> 100 µM (inactive)	> 100 µM (inactive)	> 100 µM (inactive)
